Key:
[1] = target: T1, VP16-human estrogen receptor alpha (ERa) chimeric polypeptide (Homo sapiens, UniProt P03372, G400V); assay: Transgenic Arabidopsis T2 seedlings containing VP16ERα and ERE-GFP constructs, green fluorescence; type: cell-based; set-up: expressed in transfected cells; host or cells: transgenic rice callus (A1); transgenic Arabidopsis T2 seedlings (A2); Agrobacterium binary vector Bin4-EUTG-10::VPCR-ER-1#81, CaMV35S promoter
[2] = target: T1, VP16-human estrogen receptor alpha (ERa) chimeric polypeptide
Experimental: About 50 selected lines were obtained and cultured at 27° C. on N6 media containing 5 mg/ml bialaphos, with transfer to fresh media occurring about every 2 weeks. […] After incubation for about 40 hours, callus cells were examined under a dissecting microscope at 10× to 60× magnification.

T1 sequence (P03372 with tags, fused parts or gaps G400V): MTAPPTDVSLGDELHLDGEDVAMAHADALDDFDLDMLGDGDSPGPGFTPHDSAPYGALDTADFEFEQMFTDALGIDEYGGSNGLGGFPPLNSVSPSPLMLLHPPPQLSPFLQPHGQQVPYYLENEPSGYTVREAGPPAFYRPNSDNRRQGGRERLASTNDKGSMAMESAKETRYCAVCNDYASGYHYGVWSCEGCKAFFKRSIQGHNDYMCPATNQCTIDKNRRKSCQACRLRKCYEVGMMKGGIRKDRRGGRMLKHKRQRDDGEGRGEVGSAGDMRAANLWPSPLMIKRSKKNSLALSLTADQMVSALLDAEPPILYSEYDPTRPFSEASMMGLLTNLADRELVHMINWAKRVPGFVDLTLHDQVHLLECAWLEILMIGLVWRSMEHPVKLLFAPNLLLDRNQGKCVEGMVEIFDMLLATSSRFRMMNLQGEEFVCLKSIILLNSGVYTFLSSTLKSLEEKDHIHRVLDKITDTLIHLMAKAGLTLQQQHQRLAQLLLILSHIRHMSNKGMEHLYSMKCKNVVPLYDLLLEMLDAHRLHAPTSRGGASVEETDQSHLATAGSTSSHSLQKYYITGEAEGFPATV

With 4-hydroxytamoxifen the “green fluorescence (GFP reporter) of T2 seedlings” value [1] was “moderate to strong green fluorescence” and the “green fluorescence (GFP reporter) in the presence of the exogenous compound” value [2] was “moderate to very bright green fluorescence”.
